{"source": "patent US20130039905A1", "about": "(Neurotec Pharma, S.L., priority 2010, published 2013)", "key": {"[1]": {"assay": "Glycemia in mice receiving daily oral diazoxide (Example 1)", "assay_type": "in vivo", "details": "30 days, female C57BL/6J mice, blood glucose at time 0 and 60 minutes", "protocol": "Female C57BL/6J mice, 11 weeks of age, were purchased from Charles River and maintained on a 12:12 hr light:dark cycle, with standard chow and water freely available. The experiments began at 11:00 h. […] From day 4 on, glucose blood levels were measured every 3-4 days during the 30-day treatment period. Measurements were performed immediately before drug administration (time 0) and at 60 minutes. Blood samples were obtained from the saphenous vein and glucose levels were determined using a glucometer and glucose test strips (Accu-Chek® Aviva, Roche Diagnostics, Indianapolis, Ind, USA). For each group, hyperglycemia was considered when glucose concentration was equal or higher than 176 mg/dl."}, "[2]": {"test_system": "EAE mice", "assay": "EAE in mice, treatment after first clinical signs (post-treatment, Example 3)", "assay_type": "in vivo", "details": "for global mean decrease of the clinical score (Area Under the Curve vs placebo): post-treatment", "protocol": "Experimental Autoimmune Encephalomyelitis induction and clinic scoring of mice were performed as described on Example 2.\nThe day scoring a value of 1, every mouse was randomly assigned to a diazoxide-treatment or placebo-control group. The period of treatment was 15 days and the drug was dissolved in a vehicle consisting in 98.5% water plus 1.5% of dimetyl sulfoxide (Sigma-Aldrich, St. Louis, Mo., USA) and was administered daily orally by gavage (p.o.), in a dose volume of 200 μl. […] One placebo-control group received a daily oral administration of vehicle.\nThe non-parametric Mann-Whitney-Wilcoxon test was performed to establish the differences between the treated groups and control group for each day. p<0.05 was considered as significant. To test the global effect of the treatment along all the study, the Area Under the Curve of treated groups and control group was compared using One-Way-Anova test. p<0.05 was considered as significant."}, "[3]": {"test_system": "bupivacaine-induced actute CNS toxicity", "details": "100 mg/kg (300 mg/m^2), mice; cited from earlier work"}, "[4]": {"test_system": "EAE mice", "assay": "EAE in mice, treatment starting at immunization (pre-treatment, Example 2)", "assay_type": "in vivo", "details": "for global mean decrease of the clinical score (Area Under the Curve vs placebo): pre-treatment"}}, "note": "“Also recorded” adds a separate entry of the source."}
{"molecule": "CC1=NS(=O)(=O)c2cc(Cl)ccc2N1", "note": "[Diazoxide]", "values": [{"measurement": "hyperglycemia (glucose concentration equal or higher than 176 mg/dl)", "setting": "[1]; 0.05 mg/kg (0,15 mg/m^2) daily p.o.", "result": "none of the two doses tested in this study produced hyperglycemia"}, {"measurement": "hyperglycemia (glucose concentration equal or higher than 176 mg/dl)", "setting": "[1]; 1 mg/kg (3 mg/m^2) daily p.o.", "result": "none of the two doses tested in this study produced hyperglycemia"}, {"measurement": "daily EAE clinical score compared to control group", "setting": "[2]; 0.05 mg/kg (0.15 mg/m^2) daily p.o. for 15 days from score 1", "result": "significant difference at the final phase of the study (day 15)"}, {"measurement": "global mean decrease of the clinical score (Area Under the Curve vs placebo)", "setting": "[2]; 0.05 mg/kg (0.15 mg/m^2) daily p.o.", "result": 19, "unit": "%"}, {"measurement": "daily EAE clinical score compared to placebo-control group", "setting": "[2]; 0.8 mg/kg (2.4 mg/m^2) daily p.o. for 15 days from score 1, day six to day fifteen", "result": "all clinical values were significantly lower; also recorded: significant reduction of the daily clinical score in ten consecutive days"}, {"measurement": "global mean decrease of the clinical score (Area Under the Curve vs placebo)", "setting": "[2]; 1 mg/kg (3 mg/m^2) daily p.o., p<0.05", "result": 40, "unit": "%"}, {"measurement": "daily EAE clinical score compared to control group", "setting": "[2]; 4 mg/kg (12 mg/m^2) daily p.o. for 15 days from score 1", "result": "significant reduction in the clinical score at day four and at day five"}, {"measurement": "global mean decrease of the clinical score (Area Under the Curve vs placebo)", "setting": "[2]; 4 mg/kg (12 mg/m^2) daily p.o.", "result": 15, "unit": "%"}, {"measurement": "morbidity and mean daily clinical score compared to placebo-control group", "setting": "[2]; 0.05, 0.8 and 1 mg/kg daily p.o. for 15 days from score 1", "result": "significant reduction of morbidity and of the mean daily clinical score"}, {"measurement": "daily EAE clinical score compared to placebo-control group", "setting": "[2]; 1 lmg/kg (3 mg/m^2) daily p.o. for 15 days from score 1, day four to day fifteen", "result": "significantly lower from day four"}, {"measurement": "period of latency of the convulsions caused by bupivacaine", "setting": "[3]", "result": "increasing the period of latency of the convulsions"}, {"measurement": "global mean decrease of the clinical score (Area Under the Curve vs placebo)", "setting": "[4]; 0,8 mg/Kg (2.4 mg/m^2) daily p.o., p<0,01", "result": 26, "unit": "%"}, {"measurement": "daily EAE clinical score compared to control group", "setting": "[4]; 0.025 mg/kg (0.075 mg/m^2) daily p.o. for 30 days from immunization", "result": "significant difference at days fourteen, fifteen, eighteen and nineteen"}, {"measurement": "daily EAE clinical score compared to placebo control group", "setting": "[4]; 0.8 mg/kg (2.4 mg/m^2) daily p.o. for 30 days from immunization", "result": "significantly lower at day thirteen and from day twenty-five to thirty; also recorded: significant in seven non-consecutive days"}, {"measurement": "global mean decrease of the clinical score (Area Under the Curve vs placebo)", "setting": "[4]; 0,025 mg/Kg (0.075 mg/m^2) daily p.o., p<0.05", "result": 26, "unit": "%"}, {"measurement": "mean value for clinical score compared to control group after day 13 post-immunization", "setting": "[4]; all dosages tested (0.025 and 0.8 mg/kg) daily p.o. from immunization", "result": "better mean value for clinical score"}]}
